One compound from US10724101B2, “Biomarker SCNN1B for gastric cancer” (The Chinese University of Hong Kong, priority 2016, dated 2020) can be followed below.

The structures appear in SMILES notation.

In the experiment the test system is gastric cancer cell lines (AGS, KATOIII, MGC803, MKN28, MKN45 and SNU1) with silenced SCNN1B expression. The experiment in a line: Demethylation treatment with 5-Aza; SCNN1B expression by semiquantitative RT-PCR. The settings on record: 10 μM 5-Aza for 5 days; six cell lines with silenced SCNN1B; FIG. 4. Type of experiment: cell-based, human. The method, then: Semiquantitative RT-PCR was performed in a total volume of 25 μL reaction containing 1× Premix Ex Taq (Takara, Ohtsu, Japan) and 5-10 ng cDNA. The PCR program started with an initial denaturation at 95° C. for 10 min, followed by 27-35 cycles (95° C. for 30 sec, annealing temperature for 30 sec, and 72° C. for 30 sec) of amplification, with a final extension at 72° C. for 10 min. The PCR bands were visualized under ultraviolet light and photographed. The expression of the target gene was normalized by the expression of house-keeping gene β-actin, which served as an internal control.
Cells were seeded at a density of 1×10^5/100-mm dishes and grew for 24 hr. Cells were then treated with 10 μM 5-aza-2′-deoxycytidine (“5-Aza”) (Sigma-Aldrich) for 5 days. The 5-Aza was replenished every day. The gene expression of SCNN1B was evaluated using semiquantitative RT-PCR.

On to `Nc1ncn([C@H]2C[C@H](O)[C@@H](CO)O2)c(=O)n1` [5-Aza, 5-aza-2′-deoxycytidine], for which the “expression of SCNN1B after demethylation treatment” value is reported as “Restored expression of SCNN1B”.
